Results from US10351573B2, “Benzoic acid, benzoic acid derivatives and heteroaryl carboxylic acid conjugates of hydrocodone, prodrugs, methods of making and uses thereof” (KemPharm, Inc., priority 2009, dated 2019).
Entries after “also recorded” stand apart in the source; their conditions may differ.

Legend:
[1] = Hydrolysis to hydrocodone in 1 N hydrochloric acid for 1 hour
[2] = Chemical stability: hydrolysis of conjugates in water for one hour; type: physicochemical
Procedure: Exemplary conjugates of hydrocodone of the present technology and control test conjugates not of the present technology were tested for chemical stability under conditions similar to what a potential drug abuser may use to “extract” the active portion of the molecule, for example dissolved in water, hydrochloric acid or sodium bicarbonate either at ambient temperature or 100° C.

[3] = Oral PK profiles in rats (plasma hydrocodone, hydromorphone, intact Bz-HC by LC/MS/MS); settings: equivalent to 2 mg/kg hydrocodone freebase
[4] = Hydrolysis in 5% NaHCO3 for one hour; type: physicochemical
[5] = Water solubility / feasibility of intranasal or intravenous dosing
[6] = Intranasal PK profile in rats; settings: equivalent to 2 mg/kg hydrocodone freebase
[7] = tested on: trypsin, pancreatin, pepsin and various esterases; test: Enzymatic tampering studies; type: in vitro ADME
Excerpt: Without being bound by theory, it is believed that metabolism of Bz-HC after oral administration that allows for the rapid release of therapeutic amounts of hydrocodone requires the combinations and processes of the esterases and other enzymes functioning in the living enterocytes and liver tissue inside the body.

[8] = Tamper resistance: solvent hydrolysis studies; type: physicochemical
Procedure: In order to further evaluate the tamper-resistant properties of Bz-HC, a wide variety of Bz-HC solvent extraction studies were performed. […] The prodrug is not cleaved and no hydrocodone becomes available. […] We also conducted a wide variety of Bz-HC solvent hydrolysis studies in our own laboratories.

[9] = Example 22: intranasal crushed / oral intact tablets human PK study vs HB/APAP
Oral PK profiles in dogs = settings: equivalent to 2 mg/kg hydrocodone freebase
[10] = Example 20: intact Bz-HC in plasma samples of Examples 13-18; type: in vivo; settings: humans, oral, LLOQ
Procedure: Validated LC/MS/MS methods were used to measure plasma concentrations of Bz-HC, hydrocodone, hydromorphone and acetaminophen (APAP). The lower limits of quantitation (LLOQ) for Bz-HC, hydrocodone, hydromorphone, and APAP in plasma were 25 pg/mL, 250 pg/mL, 25 pg/mL, and 0.025 μg/mL, respectively for examples 14-18. For example 13, the lower limits of quantitation (LLOQ) for Bz-HC, hydrocodone, hydromorphone were 0.5 ng/mL.
LC/MS/MS analyses were performed in order to attempt to measure intact Bz-HC concentrations in the plasma samples obtained from any of the blood samples described above in Examples 13-18. However, all plasma concentrations of intact Bz-HC were <LLOQ (25 pg/mL) and no PK analyses could be performed

[11] = human, plasma, inhaled or intranasal, 13.34 mg

2-aminobenzoate hydrocodone [Compound 2-ABz-HC]
%-release in 1N HCl ([1]; 100° C.): 16% | %-release in 1N HCl ([1]; ambient (~20° C.)): 0% | %-release (conjugate hydrolyzed) in water ([2]; 100° C.): 0% | %-release (conjugate hydrolyzed) in water ([2]; ambient (about 20° C.)): 0% | AUC of hydrocodone, % lower than Hydrocodone.BT [3]: approximately 35% | AUC of hydromorphone, % lower than Hydrocodone.BT [3]: approximately 25% | Cmax of hydrocodone, % lower than Hydrocodone.BT [3]: ~60% | Cmax of hydromorphone, % lower than Hydrocodone.BT [3]: ~50%

COc1ccc(C(=O)OC2=CC[C@H]3[C@H]4Cc5ccc(OC)c6c5[C@@]3(CCN4C)C2O6)cc1O (some centres unmarked) [3-OH-4-MeO-Bz-HC]
%-release in 1N HCl ([1]; 100° C.): 35% | %-release in 1N HCl ([1]; ambient (~20° C.)): 0% | %-release in 5% NaHCO3 ([4]; 5% NaHCO3, 100° C.): 36% | %-release in 5% NaHCO3 ([4]; 5% NaHCO3, ambient (~20° C.)): 0% | water solubility (in words) [5]: poorly water soluble; also recorded: hydrophobic

COc1ccc2c3c1OC1C(OC(=O)CCCCC(=O)O)=CC[C@H]4[C@@H](C2)N(C)CC[C@]314 (some centres unmarked) [Adipate-HC, reference compound]
%-release in 1N HCl ([1]; 100° C.): 100% | %-release in 1N HCl ([1]; ambient (~20° C.)): 13% | %-release in 5% NaHCO3 ([4]; 5% NaHCO3, 100° C.): 100% | %-release in 5% NaHCO3 ([4]; 5% NaHCO3, ambient (~20° C.)): 3% | water solubility (in words) [5]: water soluble | AUC for hydromorphone (FIG. 8), % higher than Bz-HC [6]: approximately 750% | AUC for hydromorphone (so in the source); FIG. 7, hydrocodone curves), % higher than Bz-HC [6]: approximately 280% | Cmax for hydromorphone (FIG. 8), % higher than Bz-HC [6]: ~660% | Cmax for hydromorphone (so in the source); FIG. 7, hydrocodone curves), % higher than Bz-HC [6]: ~60%

COc1ccc2c3c1OC1C(OC(=O)c4ccccc4)=CCC4C(C2)N(C)CCC314 (centres unmarked) [Bz-HC, benzoate-hydrocodone]
release of hydrocodone from the prodrug by enzymes (in words) [7]: no significant release of hydrocodone | AUC for intact Bz-HC as % of the AUC value for hydrocodone [3]: approximately 10% | AUC for intact Bz-HC as % of the AUC value for hydromorphone [3]: ~3% | %-release of Hydrocodone ([8]; Acetone, ambient temperature, 0.5 h): 0% | %-release of Hydrocodone ([8]; Acetone, ambient temperature, 1 h): 0% | %-release of Hydrocodone ([8]; Acetone, ambient temperature, 4 h): 0% | %-release of Hydrocodone ([8]; Acetone, at boiling point, 0.5 h): 0% | %-release of Hydrocodone ([8]; Acetone, at boiling point, 1 h): 0% | %-release of Hydrocodone ([8]; Acetone, at boiling point, 4 h): 0% | %-release of Hydrocodone ([8]; Ethanol, ambient temperature, 0.5 h): 0% | %-release of Hydrocodone ([8]; Ethanol, ambient temperature, 1 h): 0% | %-release of Hydrocodone ([8]; Ethanol, ambient temperature, 4 h): 0% | %-release of Hydrocodone ([8]; Ethanol, at boiling point, 0.5 h): 0% | %-release of Hydrocodone ([8]; Ethanol, at boiling point, 1 h): 0% | %-release of Hydrocodone ([8]; Ethanol, at boiling point, 4 h): 0% | %-release of Hydrocodone ([8]; Ethyl acetate, ambient temperature, 0.5 h): 0% | %-release of Hydrocodone ([8]; Ethyl acetate, ambient temperature, 1 h): 0% | %-release of Hydrocodone ([8]; Ethyl acetate, ambient temperature, 4 h): 0% | %-release of Hydrocodone ([8]; Ethyl acetate, at boiling point, 0.5 h): 0% | %-release of Hydrocodone ([8]; Ethyl acetate, at boiling point, 1 h): 0% | %-release of Hydrocodone ([8]; Ethyl acetate, at boiling point, 4 h): 0% | %-release of Hydrocodone ([8]; Methanol, ambient temperature, 0.5 h): 0% | %-release of Hydrocodone ([8]; Methanol, ambient temperature, 1 h): 0% | %-release of Hydrocodone ([8]; Methanol, ambient temperature, 4 h): 0% | %-release of Hydrocodone ([8]; Methanol, at boiling point, 0.5 h): 0% | %-release of Hydrocodone ([8]; Methanol, at boiling point, 1 h): 0% | %-release of Hydrocodone ([8]; Methanol, at boiling point, 4 h): 0% | %-release of Hydrocodone ([8]; Methyl ethyl ketone, ambient temperature, 0.5 h): 0% | %-release of Hydrocodone ([8]; Methyl ethyl ketone, ambient temperature, 1 h): 0% | %-release of Hydrocodone ([8]; Methyl ethyl ketone, ambient temperature, 4 h): 0% | %-release of Hydrocodone ([8]; Methyl ethyl ketone, at boiling point, 0.5 h): 0% | %-release of Hydrocodone ([8]; Methyl ethyl ketone, at boiling point, 1 h): 0% | %-release of Hydrocodone ([8]; Methyl ethyl ketone, at boiling point, 4 h): 0% | %-release of Hydrocodone ([8]; Octane, ambient temperature, 0.5 h): 0% | %-release of Hydrocodone ([8]; Octane, ambient temperature, 1 h): 0% | %-release of Hydrocodone ([8]; Octane, ambient temperature, 4 h): 0% | %-release of Hydrocodone ([8]; Octane, at boiling point, 0.5 h): 0% | %-release of Hydrocodone ([8]; Octane, at boiling point, 1 h): 0% | %-release of Hydrocodone ([8]; Octane, at boiling point, 4 h): 0% | %-release of Hydrocodone ([8]; Petrol ether, ambient temperature, 0.5 h): 0% | %-release of Hydrocodone ([8]; Petrol ether, ambient temperature, 1 h): 0% | %-release of Hydrocodone ([8]; Petrol ether, ambient temperature, 4 h): 0% | %-release of Hydrocodone ([8]; Petrol ether, at boiling point, 0.5 h): 0% | %-release of Hydrocodone ([8]; Petrol ether, at boiling point, 1 h): 0% | %-release of Hydrocodone ([8]; Petrol ether, at boiling point, 4 h): 0% | %-release of Hydrocodone ([8]; Tetrahydrofuran, ambient temperature, 0.5 h): 0% | %-release of Hydrocodone ([8]; Tetrahydrofuran, ambient temperature, 1 h): 0% | %-release of Hydrocodone ([8]; Tetrahydrofuran, ambient temperature, 4 h): 0% | %-release of Hydrocodone ([8]; Tetrahydrofuran, at boiling point, 0.5 h): 0% | %-release of Hydrocodone ([8]; Tetrahydrofuran, at boiling point, 1 h): 0% | %-release of Hydrocodone ([8]; Tetrahydrofuran, at boiling point, 4 h): 0% | %-release of Hydrocodone ([8]; Toluene, ambient temperature, 0.5 h): 0% | %-release of Hydrocodone ([8]; Toluene, ambient temperature, 1 h): 0% | %-release of Hydrocodone ([8]; Toluene, ambient temperature, 4 h): 0% | %-release of Hydrocodone ([8]; Toluene, at boiling point, 0.5 h): 0% | %-release of Hydrocodone ([8]; Toluene, at boiling point, 1 h): 0% | %-release of Hydrocodone ([8]; Toluene, at boiling point, 4 h): 0% | %-release of Hydrocodone ([8]; Water, ambient temperature, 0.5 h): 0% | %-release of Hydrocodone ([8]; Water, ambient temperature, 1 h): 0% | %-release of Hydrocodone ([8]; Water, ambient temperature, 4 h): 0% | %-release of Hydrocodone ([8]; Water, at boiling point, 0.5 h): 0% | %-release of Hydrocodone ([8]; Water, at boiling point, 1 h): 0% | %-release of Hydrocodone ([8]; Water, at boiling point, 4 h): 0% | %-release of Hydrocodone ([8]; Xylene, ambient temperature, 0.5 h): 0% | %-release of Hydrocodone ([8]; Xylene, ambient temperature, 1 h): 0% | %-release of Hydrocodone ([8]; Xylene, ambient temperature, 4 h): 0% | %-release of Hydrocodone ([8]; Xylene, at boiling point, 0.5 h): 0% | %-release of Hydrocodone ([8]; Xylene, at boiling point, 1 h): 0% | %-release of Hydrocodone ([8]; Xylene, at boiling point, 4 h): 0% | solubility at physiological pH (in words) ([5]; human physiological pH of 7.4 (blood)): highly insoluble | water solubility (in words) [5]: hydrophobic; also recorded: poor water solubility | half-life ([9]; human, plasma, inhaled or intranasal): 66.6 min | AUC(0-inf) [9, 11]: 0.0133 ± 0.00886 µg·h/mL | AUC(0-t) [9, 11]: 0.0132 ± 0.00886 µg·h/mL | Tmax [9, 11]: 27 min | Tlast of Bz-HC (time of the last quantifiable concentration), median ([9]; intranasal crushed Bz-HC.HCl/APAP 13.34/650 mg): 6.22 h | AUC value for intact Bz-HC as % of the AUC value for hydrocodone (Oral PK profiles in dogs): approximately 10% | plasma concentrations of intact Bz-HC [10]: < 0.025 ng/mL

COc1ccc2c3c1OC1C(OC(=O)c4cccc(O)c4)=CC[C@H]4[C@@H](C2)N(C)CC[C@]314 (some centres unmarked) [Compound 3-OH-Bz-HC]
water solubility (in words) [5]: poorly water soluble; also recorded: hydrophobic
